According to PubChem BioAssay AID1963831 (Molecular Pharmacology Branch, DTP, NCI, 2024):
Values belong to the compound of their own block, whether it stands above or below them.

Test system: 889142-216-R-J1-PDC complex spheroid viability
Experiment: Anticancer human tumor 889142-216-R-J1-PDC patient-derived bladder carcinoma cell line growth inhibition [POLQ]
Conditions: for IC50: curve of first compound; for viability, T/C: stronger effect = lower value
How it was run: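 Complex spheroid viability model combining PDC tumour cells with endothelial (HUVEC) and MSC stromal cells. Novobiocin, ART-558 or RP6685 were tested singly and in combination with standard and investigational anticancer drugs. Each was titrated in half-log steps from near clinical Cmax, or from 10 microM where Cmax was unknown.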

[1] = second compound 0.0316 µM, first compound 0.0316 µM
[2] = second compound 0.0316 µM, first compound 0.1 µM
[3] = second compound 0.1 µM, first compound 0.0316 µM
[4] = second compound 0.1 µM, first compound 0.1 µM
[5] = second compound 0.316 µM, first compound 0.0316 µM
[6] = second compound 0.316 µM, first compound 0.1 µM
[7] = second compound 1 µM, first compound 0.0316 µM
[8] = second compound 1 µM, first compound 0.1 µM
[9] = second compound 3.16 µM, first compound 0.0316 µM
[10] = second compound 3.16 µM, first compound 0.1 µM
[11] = second compound 10 µM, first compound 0.0316 µM
[12] = second compound 10 µM, first compound 0.1 µM
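Further: spheroids exposed to compounds for seven days.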
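Wherever viability, T/C is given: 100% = DMSO vehicle control viability.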

Structure (SMILES): CCc1cc2c(N3CCc4c(cc(Cn5ccnc5)cc4-c4cn(C)nc4C(F)(F)F)C3=O)cc(C)nc2c(OC)n1 + Nc1ccc(C#CCN(C(=O)Cc2ncc(C(F)(F)F)cc2C(F)(F)F)c2ccc(F)cc2)nn1
IC50 (second compound 0.0316 µM): > 10 µM | IC50 (second compound 0.1 µM): > 10 µM | IC50 (second compound 0.316 µM): > 10 µM | IC50 (second compound 1 µM): > 10 µM | IC50 (second compound 3.16 µM): > 10 µM | IC50 (second compound 10 µM): > 10 µM | viability, T/C [1]: 98.2% | viability, T/C [2]: 96.9% | viability, T/C (second compound 0.0316 µM, first compound 0.316 µM): 109% | viability, T/C (second compound 0.0316 µM, first compound 1 µM): 126% | viability, T/C (second compound 0.0316 µM, first compound 3.16 µM): 108% | viability, T/C (second compound 0.0316 µM, first compound 10 µM): 80.2% | viability, T/C [3]: 123% | viability, T/C [4]: 97.6% | viability, T/C (second compound 0.1 µM, first compound 0.316 µM): 126% | viability, T/C (second compound 0.1 µM, first compound 1 µM): 133% | viability, T/C (second compound 0.1 µM, first compound 3.16 µM): 113% | viability, T/C (second compound 0.1 µM, first compound 10 µM): 79.5% | viability, T/C [5]: 104% | viability, T/C [6]: 119% | viability, T/C (second compound 0.316 µM, first compound 0.316 µM): 123% | viability, T/C (second compound 0.316 µM, first compound 1 µM): 135% | viability, T/C (second compound 0.316 µM, first compound 3.16 µM): 126% | viability, T/C (second compound 0.316 µM, first compound 10 µM): 75.2% | viability, T/C [7]: 125% | viability, T/C [8]: 116% | viability, T/C (second compound 1 µM, first compound 0.316 µM): 132% | viability, T/C (second compound 1 µM, first compound 1 µM): 135% | viability, T/C (second compound 1 µM, first compound 3.16 µM): 109% | viability, T/C (second compound 1 µM, first compound 10 µM): 67.9% | viability, T/C [9]: 109% | viability, T/C [10]: 125% | viability, T/C (second compound 3.16 µM, first compound 0.316 µM): 119% | viability, T/C (second compound 3.16 µM, first compound 1 µM): 114% | viability, T/C (second compound 3.16 µM, first compound 3.16 µM): 116% | viability, T/C (second compound 3.16 µM, first compound 10 µM): 97.3% | viability, T/C [11]: 97.8% | viability, T/C [12]: 126% | viability, T/C (second compound 10 µM, first compound 0.316 µM): 112% | viability, T/C (second compound 10 µM, first compound 1 µM): 124% | viability, T/C (second compound 10 µM, first compound 3.16 µM): 104% | viability, T/C (second compound 10 µM, first compound 10 µM): 93.4%

IC50 (second compound 0.0316 µM): > 0.1 µM | IC50 (second compound 0.1 µM): > 0.1 µM | IC50 (second compound 0.316 µM): > 0.1 µM | IC50 (second compound 1 µM): > 0.1 µM | IC50 (second compound 3.16 µM): > 0.1 µM | IC50 (second compound 10 µM): > 0.1 µM
Structure (SMILES): CC[C@@]1(O)C(=O)OCc2c1cc1n(c2=O)Cc2cc3c(CN(C)C)c(O)ccc3nc2-1 + Nc1ccc(C#CCN(C(=O)Cc2ncc(C(F)(F)F)cc2C(F)(F)F)c2ccc(F)cc2)nn1
viability, T/C (second compound 0.0316 µM, first compound 0.000316 µM): 101% | viability, T/C (second compound 0.0316 µM, first compound 0.001 µM): 78.3% | viability, T/C (second compound 0.0316 µM, first compound 0.00316 µM): 95.8% | viability, T/C (second compound 0.0316 µM, first compound 0.01 µM): 87.9% | viability, T/C [1]: 67.5% | viability, T/C [2]: 56.1% | viability, T/C (second compound 0.1 µM, first compound 0.000316 µM): 99.4% | viability, T/C (second compound 0.1 µM, first compound 0.001 µM): 89.4% | viability, T/C (second compound 0.1 µM, first compound 0.00316 µM): 91.3% | viability, T/C (second compound 0.1 µM, first compound 0.01 µM): 75.2% | viability, T/C [3]: 59.7% | viability, T/C [4]: 52.4% | viability, T/C (second compound 0.316 µM, first compound 0.000316 µM): 86.8% | viability, T/C (second compound 0.316 µM, first compound 0.001 µM): 77.6% | viability, T/C (second compound 0.316 µM, first compound 0.00316 µM): 116% | viability, T/C (second compound 0.316 µM, first compound 0.01 µM): 94.8% | viability, T/C [5]: 54.7% | viability, T/C [6]: 59.2% | viability, T/C (second compound 1 µM, first compound 0.000316 µM): 86.9% | viability, T/C (second compound 1 µM, first compound 0.001 µM): 67.1% | viability, T/C (second compound 1 µM, first compound 0.00316 µM): 109% | viability, T/C (second compound 1 µM, first compound 0.01 µM): 70.7% | viability, T/C [7]: 63.1% | viability, T/C [8]: 55.9% | viability, T/C (second compound 3.16 µM, first compound 0.000316 µM): 87.1% | viability, T/C (second compound 3.16 µM, first compound 0.001 µM): 74.4% | viability, T/C (second compound 3.16 µM, first compound 0.00316 µM): 109% | viability, T/C (second compound 3.16 µM, first compound 0.01 µM): 89.4% | viability, T/C [9]: 57.4% | viability, T/C [10]: 52.6% | viability, T/C (second compound 10 µM, first compound 0.000316 µM): 121% | viability, T/C (second compound 10 µM, first compound 0.001 µM): 135% | viability, T/C (second compound 10 µM, first compound 0.00316 µM): 86.2% | viability, T/C (second compound 10 µM, first compound 0.01 µM): 72.6% | viability, T/C [11]: 70.5% | viability, T/C [12]: 53.4%
